Results: patent US6569637B1, “Diagnostic reagents for renal function disorders and method for analyzing urine samples” (Kikkoman Corporation, priority 1997, dated 2003)

Design: species or system patient
Details: in vivo
Description: An ATP standard reagent was prepared by dissolving sodium salt of ATP in 25 mM HEPES buffer (pH7.75) at a concentration of 2×10^−6M.
Two-hundreds μl of a urine sample obtained from a patient suffering from renal dysfunction who received cisplatin administration was added and reacted with 200 μl of the ATP standard reagent prepared as described above at 37° C. for 30 minutes.
The solution was 10-fold diluted with 20 mM phosphate buffer (pH7.5), and 200 μl of the diluted solution was transferred into a test tube for ATP measurement. Then, 100 μl of luciferin-luciferase luminescent reagent which had been prepared by dissolving the freeze-dried luminescent reagent (included in ATP assay kit “CheckLite™” available from Kikkoman Corporation) in a solution for dissolving the reagent (also included in the kit) was added to the solution in the tube. The luminescent level based on the ATP level remaining after the reaction was immediately determined using Lumitester K-210.
On the other hand, the luminescent level corresponding to the ATP level in a urine sample before the reaction was determined in the same matter.
Diagnosis of renal dysfunction by ATP method was performed by calculating the ATP index (residual ATP %) according to the equation below and determining whether the subject is a patient with renal dysfunction S or a healthy individual R according to the following criteria. […]

SMILES: N.N.[Cl][Pt][Cl] [cisplatin]
- residual ATP % in urine sample (ATP index): decreases to the minimum
